Data as given in US9388148B2, “Acylaminocycloalkyl compounds suitable for treating disorders that respond to modulation of dopamine D3 receptor” (AbbVie Deutschland GmbH & Co. KG, priority 2013, dated 2016).

Columns and labels:
[1] = molecular target: T1, human dopamine D2L receptors (long isoform) (Homo sapiens, UniProt P14416); test: Dopamine D2L receptor binding ([125I]iodospiperone displacement); conditions: selectivity ratio, human D2L vs human D3 binding
T1 construct: expressed in transfected cells; host or cells: HEK-293
Procedure: The substance to be tested was either dissolved in methanol/Chremophor® (BASF SE) or in dimethyl sulfoxide and then diluted with water to the desired concentration.
Each assay mixture was run in triplicate. • The incubation buffer contained 50 mM tris, 120 mM NaCl, 5 mM KCl, 2 mM CaCl2, 2 mM MgCl2 and 0.1% bovine serum albumin, 10 μM quinolone and 0.1% ascorbic acid (prepared fresh daily). […] Each assay mixture was run in triplicate. • The incubation buffer contained 50 mM tris, 120 mM NaCl, 5 mM KCl, 2 mM CaCl2, 2 mM MgCl2 and 0.1% bovine serum albumin. The buffer was adjusted to pH 7.4 with HCl. c) Measurement and analysis: • After having been incubated at 25° C. for 60 minutes, the assay mixtures were filtered through a Whatman GF/B glass fiber filter under vacuum using a cell col-lecting device. The filters were transferred to scintillation viols using a filter transfer system. After 4 ml of Ultima Gold® (Packard) have been added, the samples were shaken for one hour and the radioactivity was then counted in a Beta-Counter (Packard, Tricarb 2000 or 2200CA).

[2] = Determination of the microsomal half-life / microsomal clearance; type: in vitro ADME; conditions: pH 7.4; human liver microsomes, 0.5 μM test substance, 0.25 mg protein/ml, NADPH, 37° C.; read-out: Human mCl (mikrosomal clearance)
Procedure: The metabolic stability of the compounds of the invention was determined in the following assay.
The test substances were incubated in a concentration of 0.5 μM as follows:
0.5 μM test substance are preincubated together with liver microsomes from different species (from rat, human or other species) (0.25 mg of microsomal protein/ml) in 0.05 M potassium phosphate buffer of pH 7.4 in microtiter plates at 37° C. for 5 min. The reaction is started by adding NADPH (1 mg/mL). After 0, 5, 10, 15, 20 and 30 min, 50 μl aliquots are removed, and the reaction is immediately stopped and cooled with the same volume of acetonitrile. The samples are frozen until analyzed. The remaining concentration of undegraded test substance is determined by MSMS. The half-life (T1/2) is determined from the gradient of the signal of test substance/unit time plot, it being possible to calculate the half-life of the test substance, assuming first order kinetics, from the decrease in the concentration of the compound with time. The microsomal clearance (mC1) is calculated from mC1=1n2/T1/2/(content of microsomal protein in mg/ml)×1000 [ml/min/mg] (modified from references: Di, The Society for Biomoleculur Screening, 2003, 453-462; Obach, DMD, 1999 vol 27. N 11, 1350-1359).

T1 sequence (P14416 whole entry, canonical isoform): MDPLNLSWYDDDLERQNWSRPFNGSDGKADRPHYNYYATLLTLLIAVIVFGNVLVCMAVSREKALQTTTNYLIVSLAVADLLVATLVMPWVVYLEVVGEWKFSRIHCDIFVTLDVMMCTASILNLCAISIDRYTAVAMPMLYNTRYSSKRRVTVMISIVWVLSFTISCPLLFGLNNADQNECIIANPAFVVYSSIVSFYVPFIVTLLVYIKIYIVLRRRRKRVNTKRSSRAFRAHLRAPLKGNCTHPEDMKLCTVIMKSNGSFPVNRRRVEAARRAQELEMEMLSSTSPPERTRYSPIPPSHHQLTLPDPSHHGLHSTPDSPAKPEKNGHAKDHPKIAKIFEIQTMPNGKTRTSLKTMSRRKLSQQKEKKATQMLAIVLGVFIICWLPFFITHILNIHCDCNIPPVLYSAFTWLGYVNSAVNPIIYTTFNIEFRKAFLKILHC

| Compound | D2/D3, Ki (D2L)/Ki (D3) [1] | microsomal CLint at 0.5 μM [2] |
| --- | --- | --- |
| COCCc1cc(N2CCN(CC[C@H]3C[C@H](NC(=O)C4CCC(O)CC4)C3)CC2)nc(C(C)(C)C)n1 (relative stereo) [Compound 11, N-[trans-3-[2-[4-[2-tert-butyl-6-(2-methoxyethyl)pyrimidin-4-yl]piperazin-1-yl]ethyl]cyclobutyl]-4-hydroxy-cyclohexanecarboxamide] | ++ (++ >20) | 20 to 120 µL/min/mg |
| CC(C)(C)c1nc(C2CCC2)cc(N2CCN(CC[C@H]3CC[C@H](NC(=O)C4CC(O)(C(F)(F)F)C4)CC3)CC2)n1 (relative stereo) [Compound 19, N-[trans-4-[2-[4-(2-tert-butyl-6-cyclobutyl-pyrimidin-4-yl)piperazin-1-yl]ethyl]cyclohexyl]-3-hydroxy-3-(trifluoromethyl)cyclobutanecarboxamide] | + (+ >10) | 20 to 120 µL/min/mg |
| COCCc1cc(N2CCN(CC[C@H]3CC[C@H](NC(=O)C4CC(O)(C(F)(F)F)C4)CC3)CC2)nc(C(C)(C)C)n1 (relative stereo) [Compound 25, N-[trans-4-[2-[4-[2-tert-butyl-6-(2-methoxyethyl)pyrimidin-4-yl]piperazin-1-yl]ethyl]cyclohexyl]-3-hydroxy-3-(trifluoromethyl)cyclobutanecarboxamide] | ++ (++ >20) | > 120 µL/min/mg |
| COCCc1cc(N2CCN(CC[C@H]3CC[C@@H](NC(=O)C4CC(O)(C(F)(F)F)C4)CC3)CC2)nc(C(C)(C)C)n1 (relative stereo) [Compound 26, N-[cis-4-[2-[4-[2-tert-butyl-6-(2-methoxyethyl)pyrimidin-4-yl]piperazin-1-yl]ethyl]cyclohexyl]-3-hydroxy-3-(trifluoromethyl)cyclobutanecarboxamide] | +++ (+++ >50) | < 20 µL/min/mg |
| CC(C)(C)c1nc(C2CCC2)cc(N2CCN(CC[C@H]3CC[C@H](NC(=O)[C@H]4CC[C@H](O)CC4)CC3)CC2)n1 [Compound 1, trans-N-[trans-4-[2-[4-(2-tert-butyl-6-cyclobutyl-pyrimidin-4-yl)piperazin-1-yl]ethyl]cyclohexyl]-4-hydroxy-cyclohexanecarboxamide] | +++ (+++ >50) | 20 to 120 µL/min/mg |
| COCCc1cc(N2CCN(CC[C@H]3CC[C@H](NC(=O)[C@H]4CC[C@H](O)CC4)CC3)CC2)nc(C(C)(C)C)n1 [Compound 2, trans-N-[trans-4-[2-[4-[2-tert-butyl-6-(2-methoxyethyl)pyrimidin-4-yl]piperazin-1-yl]ethyl]cyclohexyl]-4-hydroxy-cyclohexanecarboxamide] | ++ (++ >20) | 20 to 120 µL/min/mg |
| COCCc1cc(N2CCN(CC[C@H]3CC[C@@H](NC(=O)[C@H]4CC[C@H](O)CC4)CC3)CC2)nc(C(C)(C)C)n1 [Compound 3, trans-N-[cis-4-[2-[4-[2-tert-butyl-6-(2-methoxyethyl)pyrimidin-4-yl]piperazin-1-yl]ethyl]cyclohexyl]-4-hydroxy-cyclohexanecarboxamide] | ++ (++ >20) | 20 to 120 µL/min/mg |
| COCCc1cc(N2CCN(CC[C@H]3CC[C@H](NC(=O)[C@H]4CC[C@@H](O)CC4)CC3)CC2)nc(C(C)(C)C)n1 [Compound 4, cis-N-[trans-4-[2-[4-[2-tert-butyl-6-(2-methoxyethyl)pyrimidin-4-yl]piperazin-1-yl]ethyl]cyclohexyl]-4-hydroxy-cyclohexanecarboxamide] | ++ (++ >20) | > 120 µL/min/mg |
| COCc1cc(N2CCN(CC[C@H]3CC[C@H](NC(=O)[C@H]4C[C@@H](O)C4)CC3)CC2)nc(C(C)(C)C)n1 [Compound 40, cis-N-[trans-4-[2-[4-[2-tert-butyl-6-(methoxymethyl)pyrimidin-4-yl]piperazin-1-yl]ethyl]cyclohexyl]-3-hydroxy-cyclobutanecarboxamide] |  | 20 to 120 µL/min/mg |
